SMILES strings stand for the structures.

The assay addresses T1, human iGluR4 (Homo sapiens, UniProt P48058).
T1 construct: expressed in transfected cells; host or cells: HEK293
Kind of assay: Whole-cell voltage clamp potentiation of currents evoked by 1 mM glutamate in HEK293 cells stably expressing human iGluR4. The assay is classed as cell-based. Conditions: HEK293 cells stably expressing human iGluR4, voltage-clamped at -60mV, concentration increased in half log units, fit to the Hill equation. From the text: HEK293 cells stably expressing human iGluR4 (obtained as described in European Patent Application Publication No. EP-A1-0583917) are used in the electrophysiological characterization of AMPA receptor potentiators. The extracellular recording solution contains (in mM): 140 NaCl, 5 KCl, 10 HEPES, 1 MgCl2, 2 CaCl2, 10 glucose, pH = 7.4 with NaOH, 295 mOsm kg-1. The intracellular recording solution contains (in mM): 140 CsCl, 1 MgCl2, 10 HEPES, (N-[2-hydroxyethyl]piperazine-N1-[2-ethanesulfonic acid]) 10 EGTA (ethylene-bis(oxyethylene-nitrilo)tetraacetic acid), pH = 7.2 with CsOH, 295 mOsm kg-1. With these solutions, recording pipettes have a resistance of 2-3 MΩ. […] Responses to 1 mM glutamate are then determined in the presence of test compound. […]
In order to determine the potency of test compounds, the concentration of the test compound, both in the bathing solution and co-applied with glutamate, is increased in half log units until the maximum effect was seen. […] Reversibility of test compound activity is determined by assessing control glutamate 1mM responses. Once the control responses to the glutamate challenge are re-established, the potentiation of these responses by 100 µM cyclothiazide is determined by its inclusion in both the bathing solution and the glutamate-containing solution. In this manner, the efficacy of the test compound relative to that of cyclothiazide can be determined.

T1 sequence (P48058 21-902): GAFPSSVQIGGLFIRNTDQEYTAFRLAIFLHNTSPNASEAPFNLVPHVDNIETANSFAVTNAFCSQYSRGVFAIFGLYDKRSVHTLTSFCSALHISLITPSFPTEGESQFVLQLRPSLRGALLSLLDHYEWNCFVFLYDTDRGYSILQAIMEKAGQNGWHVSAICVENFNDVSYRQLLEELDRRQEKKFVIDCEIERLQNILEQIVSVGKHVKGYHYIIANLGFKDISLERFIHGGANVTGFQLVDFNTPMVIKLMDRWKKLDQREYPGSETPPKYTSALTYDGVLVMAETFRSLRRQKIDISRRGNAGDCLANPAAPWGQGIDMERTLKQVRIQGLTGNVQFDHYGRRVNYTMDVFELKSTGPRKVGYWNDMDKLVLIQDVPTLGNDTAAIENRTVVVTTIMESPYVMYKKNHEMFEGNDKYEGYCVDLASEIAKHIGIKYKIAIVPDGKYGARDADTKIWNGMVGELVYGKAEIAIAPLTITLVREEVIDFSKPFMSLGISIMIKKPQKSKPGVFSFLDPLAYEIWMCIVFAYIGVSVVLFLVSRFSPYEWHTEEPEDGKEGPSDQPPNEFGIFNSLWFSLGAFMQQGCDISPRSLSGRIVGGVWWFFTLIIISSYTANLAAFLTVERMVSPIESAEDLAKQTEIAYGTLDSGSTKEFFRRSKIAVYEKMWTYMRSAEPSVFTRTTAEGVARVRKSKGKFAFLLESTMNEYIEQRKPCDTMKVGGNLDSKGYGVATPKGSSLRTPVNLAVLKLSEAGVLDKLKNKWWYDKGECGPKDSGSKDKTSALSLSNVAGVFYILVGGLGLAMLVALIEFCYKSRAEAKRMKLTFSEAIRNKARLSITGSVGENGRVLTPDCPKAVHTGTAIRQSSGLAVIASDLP

Usually EC50 stands for the concentration giving half of the maximal effect. Turning to `CC(C)S(=O)(=O)Nc1ccccc1-c1ccc(-c2ccc(-c3nnn[nH]3)cc2)cc1` [Example 77, Propane-2-sulfonic acid [4"-(1H-tetrazol-5-yl)-[1,1';4',1"]terphenyl-2-yl]-amide], the concentration for a half-maximal effect (EC50) was 0.445 µM.
